Assay results taken from PubChem BioAssay AID1963827 (Molecular Pharmacology Branch, DTP, NCI, 2024).
pIC50: −log10 of the molar value.

Test system: 994946-033-R-J1-PDC complex spheroid viability
Experiment: Anticancer human tumor 994946-033-R-J1-PDC patient-derived melanoma cell line growth inhibition [POLQ]
Conditions: for pIC50: curve of first compound; for viability, T/C: stronger effect = lower value
Summary of the method: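 Growth inhibition in 3D: complex spheroids (tumor PDC, HUVEC, MSC) treated with POLQ inhibitor combinations; where Cmax unknown, highest tested concentration 10 microM, except SN-38 at 1 microM.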
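Also: spheroids exposed to drugs for 7 days.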
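For viability, T/C in this document: 100% = DMSO vehicle treated spheroids.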

Work on `C=CC(=O)N1CCN(c2nc(=O)n(-c3c(C)ccnc3C(C)C)c3nc(-c4c(O)cccc4F)c(F)cc23)C(C)C1` (configuration not stated) + Cc1cccc(N(C)C(=O)C2C(O)CCN2c2nc(C)cc(C(F)(F)F)c2C#N)c1 yielded a pIC50 (second compound 0.0316 µM) of under 5.00, a pIC50 (second compound 0.1 µM) of under 5.00 and a pIC50 (second compound 0.316 µM) of under 5.00. The pIC50 (second compound 1 µM) was under 5.00, the pIC50 (second compound 3.16 µM) was under 5.00 and the pIC50 (second compound 10 µM) was under 5.00. It also gave a viability, T/C (second compound 0.0316 µM, first compound 0.0316 µM) of 75.8%, a viability, T/C (second compound 0.0316 µM, first compound 0.1 µM) of 101% and a viability, T/C (second compound 0.0316 µM, first compound 0.316 µM) of 112%. The viability, T/C (second compound 0.0316 µM, first compound 1 µM) was 126%, the viability, T/C (second compound 0.0316 µM, first compound 3.16 µM) was 110% and the viability, T/C (second compound 0.0316 µM, first compound 10 µM) was 132%. For the same molecule, the viability, T/C (second compound 0.1 µM, first compound 0.0316 µM) was 94.5%, the viability, T/C (second compound 0.1 µM, first compound 0.1 µM) was 118% and the viability, T/C (second compound 0.1 µM, first compound 0.316 µM) was 129%. For the same molecule, the viability, T/C (second compound 0.1 µM, first compound 1 µM) was 123%, the viability, T/C (second compound 0.1 µM, first compound 3.16 µM) was 119% and the viability, T/C (second compound 0.1 µM, first compound 10 µM) was 113%. It also gave a viability, T/C (second compound 0.316 µM, first compound 0.0316 µM) of 115%, a viability, T/C (second compound 0.316 µM, first compound 0.1 µM) of 114% and a viability, T/C (second compound 0.316 µM, first compound 0.316 µM) of 94.2%. The viability, T/C (second compound 0.316 µM, first compound 1 µM) was 140%, the viability, T/C (second compound 0.316 µM, first compound 3.16 µM) was 123% and the viability, T/C (second compound 0.316 µM, first compound 10 µM) was 93.8%. It also gave a viability, T/C (second compound 1 µM, first compound 0.0316 µM) of 113%, a viability, T/C (second compound 1 µM, first compound 0.1 µM) of 109% and a viability, T/C (second compound 1 µM, first compound 0.316 µM) of 91.1%. It also gave a viability, T/C (second compound 1 µM, first compound 1 µM) of 107%, a viability, T/C (second compound 1 µM, first compound 3.16 µM) of 90.2% and a viability, T/C (second compound 1 µM, first compound 10 µM) of 93.9%. The viability, T/C (second compound 3.16 µM, first compound 0.0316 µM) was 130%, the viability, T/C (second compound 3.16 µM, first compound 0.1 µM) was 104% and the viability, T/C (second compound 3.16 µM, first compound 0.316 µM) was 132%. It also gave a viability, T/C (second compound 3.16 µM, first compound 1 µM) of 119%, a viability, T/C (second compound 3.16 µM, first compound 3.16 µM) of 105% and a viability, T/C (second compound 3.16 µM, first compound 10 µM) of 129%. For the same molecule, the viability, T/C (second compound 10 µM, first compound 0.0316 µM) was 84.7%, the viability, T/C (second compound 10 µM, first compound 0.1 µM) was 101% and the viability, T/C (second compound 10 µM, first compound 0.316 µM) was 105%. The viability, T/C (second compound 10 µM, first compound 1 µM) was 115%, the viability, T/C (second compound 10 µM, first compound 3.16 µM) was 96.3% and the viability, T/C (second compound 10 µM, first compound 10 µM) was 106%.
